Laboratory results reported in patent US20230190660A1, “ENCAPSULATED PHARMACEUTICAL COMPOSITIONS, RELATED METHODS OF MAKING, AND RELATED METHODS OF TREATMENT” (PATH, priority 2021, published 2023).

Legend:
[1] = Static gastrointestinal use testing (GUT) model, gastric fluid; settings: 30 minutes at 37° C.
Excerpt: The purpose of this evaluation was to test whether the bile-insulin ion-pair encapsulated within the resistant starch polymer is protected from pH and enzymatic degradation encountered in the gastrointestinal compartments. Since the in vivo feasibility of insulin FDTs is proposed in a diabetic rodent model, we scaled down the size of the FDTs based on limited size of the oral cavity in rats. We also included commercially available gelatin oral capsules fit for oral delivery to rats (FIGS. 12A and 12B). Biorelevant dissolution media simulating the pH and enzymatic conditions in the different sections of gastrointestinal tract, such as fasted state simulated gastric fluid (FASSFG), and intestinal fluid in the duodenum and jejunum (TABLE 7) were generated following the composition recipe reported by Jantratid et al. (2009).
Samples were incubated in the different fluid media maintained at 37° C. and at the 30-minute time point, removed and tested for insulin content. Unformulated insulin was used as a control for comparative evaluation (FIGS. 13A and 13B).

blood glucose levels = test: Glucose lowering in STZ diabetic rodent model; format: in vivo, Sprague Dawley rodents; settings: SC
Procedure: Briefly, the male Sprague Dawley rodents (200-250 grams) are fasted 4 hours before given 65 mg/kg intraperitoneal (IP) streptozotocin (STZ) to induce diabetes and randomized into treatment groups based on the post-STZ (˜1 week) baseline glucose levels (see TABLE 10). Only rodents with hyperglycemia (glycose levels […]) are used in the study. Rodents are housed on a 12-hour light/dark cycle with no more than 2 rats per cage depending on size and acclimatized for not less than 5 days. Blood glucose levels are measured using calibrated Glucocard Vital glycometers (Arkray, Minneapolis, Minn.) and levels are reported as mg/dL. For each timepoint, blood (<5 uL) is acquired from a tail snip and directly applied to a glucose test strip. Data for each quantitative timepoint is presented as the average+/−SEM (standard error of the mean). Differences between vehicle control and each treatment groups are determined by Student's t-test using GraphPad Prism (current version) with an alpha threshold of 0.05.
Insulin and blood glucose levels were measured before administration, at 30 minutes, 60 minutes, 90 minutes, 2 hours, 4 hours, 8 hours, and 24 hours after dosing.

glucose levels [2] = test: Confirmation study: glucose levels in rats, additional doses; format: in vivo; settings: subQ, 5 IU/kg
Excerpt: (§1) The present Example describes a) selection of the dosage presentation for the lead ion-pair and the dose (see TABLE 8, FIGS. 4 and 14A-14D) and b) validation of the lead ion-pair formulation in their ability to lower glucose levels upon oral administration of the formulations (see FIGS. 15A-15D). In part a) of the present Example, we compared the capsule and FDT presentation formats for both ion-pair formulations. We also included β-CD-encapsulated ion-pair complex to see whether the encapsulation of ion-pair within β-CD offers further improvement in absorption of insulin. Liquid insulin given subcutaneously (subQ) was used a comparator in both studies.

glucose levels [3] = test: Pilot study: glucose levels in rats after oral ion-pair formulations or subQ insulin; format: in vivo; settings: subQ, 5 IU/kg
Excerpt: as §1

Q: What does the source list for insulin?
A: degradation in the presence of gastric fluid [1]: degraded almost completely; time after administration within which glucose levels rise (blood glucose levels): ≤ 4 h; glucose lowering effect (blood glucose levels; compared to diabetic rodent levels): > 60%; drop in glucose levels (glucose levels [2]; T=1 hour): ~80%; glucose level (glucose levels [2]; T=1 hour (from 600 mg/dL)): ~100 mg/dL; glucose levels (glucose levels [3]; late time point (T=8 hours), similar to T=0): 600 mg/dL; glucose level (glucose levels [3]; within the first hour (from 600 mg/dL)): 100 mg/dL; lowering of glucose levels (glucose levels [3]; within the first hour of administration): about 80%
